Reference: patent EP0791044B1, “HYDROPHOBIC PEROXYACID BLEACH PRECURSOR COMPOSITIONS STABILISED WITH A WATER SOLUBLE CARBOXYLIC ACID” (THE PROCTER & GAMBLE COMPANY, priority 1994, dated 1996)

Test: Beaker Perhydrolysis Test (Sotax Dissolution Tester) of model detergent formulation containing the precursor material
Type: physicochemical
Settings: for peroxyacid yield: percent of the theoretically available weight of peracid
Protocol: For the purpose of the present invention, unrestrained dissolution conditions are defined as those existing in the Beaker Perhydrolysis Test as carried out using a Sotax Dissolution Tester Model AT6 supplied by Sotax AG CH-4008 BASEL Switzerland. This Apparatus comprises an array of polycarbonate beakers, each capable of holding 1 litre of water, supported in a thermostatically controlled water bath. Each beaker is provided with a paddle stirrer whose speed can be controlled.
Add 5ml potassium iodide solution to the first titration beaker. • 7- Take a 10ml aliquot from Sotax beaker No. 1 and discharge into the first titration beaker at t=1 minute. • 8- Add the second sample to Sotax beaker No.2 at t= 1 minute and add 5 ml potassium iodide to a second titration beaker. • 9- Titrate the first aliquot against 0.005 M sodium thiosulphate solution until the solution is first decolourised (The colour is slowly regenerated as the solution warms and the perhydrate reacts with the iodide). • 10- Take a 10 ml aliquot from Sotax beaker No.2 at t= 2 minutes and discharge into the second titration beaker and repeat step . • 11- Take further aliquots at the following times (t= minutes)
The aliquots from Beaker No. 1 at 1 minute and from Beaker No. 2 at 2 minutes constitutes replicates and the results are averaged to give a figure from which the % perhydrolysis is calculated.
Material from each example was then incorporated into a model detergent formulation having the composition in % by weight.
The four formulations were then subjected to a Beaker Perhydrolysis Test as hereinbefore described and gave the peroxyacid yields shown in Table 1. Results are given for 1, 3, 5 & 10 minutes elapsed time and are expressed in percent of the theoretically available weight of peracid.

perhydrolysis rate (effect of agglomeration with citric acid versus raw material form, 40°C)	peroxyacid yield (1 minute from start of perhydrolysis, Temperature = 40°C, water 12° Clark)	peroxyacid yield (3 minutes from start of perhydrolysis, Temperature = 40°C, water 12° Clark)	peroxyacid yield (5 minutes from start of perhydrolysis, Temperature = 40°C, water 12° Clark)	peroxyacid yield (10 minutes from start of perhydrolysis, Temperature = 40°C, water 12° Clark)	peroxyacid yield (3 minutes from start of perhydrolysis, Temperature = 30°C, hard water (25° Clarck))	peroxyacid yield (5 minutes from start of perhydrolysis, Temperature = 30°C, hard water (25° Clarck))	peroxyacid yield (10 minutes from start of perhydrolysis, Temperature = 30°C, hard water (25° Clarck))	Molecule
No such enhancement	14%	37%	52%	71%				benzoyl caprolactam [3 (benzoyl caprolactam)]
					25%	31%	34%	CCCCCCCCCC(=O)NCCCCCC(=O)Oc1ccc(S(=O)(=O)O)cc1 [C10 oxybenzenesulfonate (raw material), (6-decanamido-caproyl) oxybenzenesulfonate]
